Data on 41 compounds can be found in BindingDB's records for doi:10.7270/Q2J96B77 (D3R/Abbott, 2020).

SMILES strings stand for the structures.

Cathepsin S, sequence (P25774 whole entry): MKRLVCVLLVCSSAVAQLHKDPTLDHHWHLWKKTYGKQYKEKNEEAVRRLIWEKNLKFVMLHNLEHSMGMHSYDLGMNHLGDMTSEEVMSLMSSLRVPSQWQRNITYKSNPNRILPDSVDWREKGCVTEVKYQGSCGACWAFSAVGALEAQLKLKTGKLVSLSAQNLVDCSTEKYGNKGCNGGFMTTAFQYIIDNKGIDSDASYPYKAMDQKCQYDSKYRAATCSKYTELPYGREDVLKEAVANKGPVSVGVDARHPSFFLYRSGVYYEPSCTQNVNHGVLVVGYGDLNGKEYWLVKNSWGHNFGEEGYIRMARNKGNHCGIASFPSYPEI

The test concerns the target Cathepsin S (Homo sapiens, UniProt P25774). As to the kind of experiment: D3R2020.
Take `CC(=O)NC1CCN(CCCn2nc(-c3ccc(Cl)c(C#Cc4ccc5c(c4)CNCC5)c3)c3c2CCN(S(C)(=O)=O)C3)CC1` [CatS_50]: half-maximal inhibition (IC50) was put at 37 nM. Compound `COC(=O)[C@@H]1Cc2ccc(C#Cc3cc(-c4nn(CCCN5CCOCC5)c5c4CN(S(C)(=O)=O)CC5)ccc3Cl)cc2CN1` [CatS_71] showed an IC50 of 65 nM. For the compound `CS(=O)(=O)N1CCc2c(c(-c3ccc(Cl)c(C#Cc4ccc(C=O)cc4)c3)nn2CCCN2CCOCC2)C1` [CatS_64], the IC50 worked out at 110 nM. On to `CS(=O)(=O)N1CCc2c(c(-c3ccc(Cl)c(CCCN4CCOCC4)c3)nn2CCCN2CCC(N3CCCC3=O)CC2)C1` [CatS_123], for which half-maximal inhibition (IC50) required 1170 nM. Take `NC(=O)N1CCc2c(c(-c3ccc(Cl)c(C#Cc4ccc(Cl)c(CN5CCOCC5)c4)c3)nn2CCCN2CCCCC2)C1` [CatS_84]: the IC50 came to 35 nM. On to `CC(=O)N1CCc2c(c(-c3ccc(C(F)(F)F)c(SCC(=O)N4CCCC4)c3)nn2C[C@H](O)CN2CCC(C(C)(C)O)CC2)C1` [CatS_11], for which the midpoint of inhibition, the IC50, lay at 160 nM. To `CS(=O)(=O)N1CCc2c(c(-c3ccc(C(F)(F)F)c(SCC(=O)N4CCC[C@@H]4C(N)=O)c3)nn2CCCN2CCC(N3CCCC3=O)CC2)C1` [CatS_129] belongs 85 nM; to `CC(=O)N1CCN(CCCn2nc(-c3ccc(C(F)(F)F)c(SCC(=O)N4CCOCC4)c3)c3c2CCN(S(C)(=O)=O)C3)CC1` [CatS_131], 310 nM; to `CS(=O)(=O)N1CCc2c(c(-c3ccc(C(F)(F)F)c(CNCc4ccc(F)cc4)c3)nn2CCCN2CCC(C3CCCCC3)CC2)C1` [CatS_26], 15 nM. `CS(=O)(=O)N1CCc2c(c(-c3ccc(Cl)c(C#Cc4ccc(CN[C@H](CO)c5ccccc5)cc4)c3)nn2CCCN2CCN(c3ccccn3)CC2)C1` [CatS_75] had a concentration for half-maximal inhibition (IC50) of 25 nM. As to `CC(C)CCNCc1cc(-c2nn(CCCN3CCC(N4CCCC4=O)CC3)c3c2CN(S(C)(=O)=O)CC3)ccc1C(F)(F)F` [CatS_126], the IC50 amounted to 240 nM. For `COc1ccccc1C1CCN(C[C@H](O)Cn2nc(-c3ccc(C(F)(F)F)c(SCCN4CCCCC4)c3)c3c2CCNC3)CC1` [CatS_5] the value was 200 nM; for `CS(=O)(=O)N1CCc2c(c(-c3ccc(Cl)c(C#Cc4ccc(CNCc5ccc(Cl)cc5)cc4)c3)nn2CCCN2CCC(N3CCCC3=O)CC2)C1` [CatS_43], 18 nM. As to `CC(C)(C)OC(=O)N1CCC(C2CCN(C[C@H](O)Cn3nc(-c4ccc(Cl)c(CCc5ccc(Cl)cc5)c4)c4c3CCN(C(N)=O)C4)CC2)CC1` [CatS_121], the IC50 is 25 nM. Compound `COC(=O)CNCc1cc(C#Cc2cc(-c3nn(CCCN4CCOC[C@@H]4C)c4c3CN(C(N)=O)CC4)ccc2Cl)ccc1Cl` [CatS_109] showed an IC50 of 25 nM. For `CNCCCNC(=O)c1ccc(C#Cc2cc(-c3nn(CCCN4CCOC[C@@H]4C)c4c3CN(C(=O)C(N)=O)CC4)ccc2Cl)cc1` [CatS_111], the IC50 amounted to 35 nM.

The compound `CC(C)=CC(=O)NCc1cc(-c2nn(CCCN(C)C)c3c2CN(C(=O)CC2CCNCC2)CC3)ccc1C(F)(F)F` [CatS_16] showed an IC50 of 260 nM.

For `C[C@H]1COCCN1CCCn1nc(-c2ccc(Cl)c(C#Cc3ccc(Cl)c(C(=O)NC[C@@H]4CCCN4)c3)c2)c2c1CCN(C(=O)C(N)=O)C2` [CatS_101], half-maximal inhibition (IC50) required 25 nM. On to `C[C@H]1COCCN1CCCn1nc(-c2ccc(Cl)c(C#Cc3ccc(Cl)c(CNCc4ccccc4)c3)c2)c2c1CCN(C(=O)C(N)=O)C2` [CatS_102], for which half-maximal inhibition (IC50) required 15 nM. In turn, `NC(=O)C(=O)N1CCc2c(c(-c3ccc(Cl)c(C#Cc4ccc(Cl)c(C(=O)N[C@@H](CO)c5ccccc5)c4)c3)nn2CCCN2CCSCC2)C1` [CatS_89] yielded an IC50 of 25 nM. To `CS(=O)(=O)N1CCc2c(c(-c3ccc(Cl)c(C#Cc4ccc(CNCc5ccc(Cl)cc5)cc4)c3)nn2CCCN2CCN(C3CC3)CC2)C1` [CatS_17] belongs 64 nM; to `CS(=O)(=O)N1CCc2c(c(-c3ccc(Cl)c(C#Cc4ccc(CNCC(F)(F)F)cc4)c3)nn2CCCN2CCC(N3CCCC3=O)CC2)C1` [CatS_56], 95 nM.

`CN(Cc1ccc(Cl)cc1)Cc1ccc(C#Cc2cc(-c3nn(CCCN4CCN(c5ccccc5)CC4)c4c3CN(S(C)(=O)=O)CC4)ccc2Cl)cc1` [CatS_76] came in with an IC50 of 72 nM. To `O=C(CO)N1CCc2c(c(-c3ccc(Cl)c(C#Cc4ccc(CNCc5ccc(Cl)cc5)cc4)c3)nn2CCCN2CCSCC2)C1` [CatS_40] belongs 95 nM; to `C[C@H]1COCCN1CCCn1nc(-c2ccc(Cl)c(C#Cc3ccc(CNCc4ccc(Cl)cc4)cc3)c2)c2c1CCN(S(C)(=O)=O)C2` [CatS_98], 76 nM; to `Cn1c(=O)n(C2CCN(CCCn3nc(-c4ccc(C(F)(F)F)cc4)c4c3CCN(C(=O)c3c[nH]cn3)C4)CC2)c2ccccc21` [CatS_3], 55 nM. With `NC(=O)N1CCc2c(c(-c3ccc(Cl)c(CCc4ccc(Cl)cc4)c3)nn2C[C@@H](O)CN2CCC(C3CCNCC3)CC2)C1` [CatS_117], the IC50 was found to be 15 nM. For `CC1CCN(CCSc2cc(-c3nn(C[C@@H](O)CN4CCC(N5C[C@@H](O)CC5=O)CC4)c4c3CN(S(C)(=O)=O)CC4)ccc2C(F)(F)F)CC1` [CatS_13] the value was 58 nM; for `CCNCc1cc(C#Cc2cc(-c3nn(CCCN4CCCCC4)c4c3CN(C(=O)C(N)=O)CC4)ccc2Cl)ccc1Cl` [CatS_82], 15 nM.

In the case of `CS(=O)(=O)N1CCc2c(c(-c3ccc(Cl)c(C#Cc4cccc(CNCc5ccc(Cl)cc5)c4)c3)nn2CCCN2CCN(c3ccccc3)CC2)C1` [CatS_78], inhibition was half-maximal at 65 nM (IC50). For `CC1(C)CCN(C[C@H](O)Cn2nc(-c3ccc(C(F)(F)F)c(CNCc4ccc(F)cc4)c3)c3c2CCN(S(C)(=O)=O)C3)CC1` [CatS_8] the value was 74 nM. Turning to `C[C@H]1COCCN1CCCn1nc(-c2ccc(Cl)c(C#Cc3ccc(Cl)c(CNCCCO)c3)c2)c2c1CCN(C(N)=O)C2` [CatS_104], the IC50 was 20 nM. For `CC(=O)NC1CCN(CCCn2nc(-c3ccc(C(F)(F)F)c(SCCO)c3)c3c2CCN(S(C)(=O)=O)C3)CC1` [CatS_132], the IC50 amounted to 340 nM. `CS(=O)(=O)N1CCc2c(c(-c3ccc(Cl)c(C#Cc4ccc(CN[C@@H]5c6ccccc6C[C@@H]5O)cc4)c3)nn2CCCN2CCN(c3ccccc3)CC2)C1` [CatS_77] showed an IC50 of 35 nM. To `CC(C)(O)CNCc1cc(C#Cc2cc(-c3nn(CCCN4CCSCC4)c4c3CN(C(=O)C(N)=O)CC4)ccc2Cl)ccc1Cl` [CatS_87] belongs 25 nM; to `C[C@H]1COCCN1CCCn1nc(-c2ccc(Cl)c(C#Cc3ccc(C(=O)NCCN4CCOCC4)cc3)c2)c2c1CCN(C(=O)C(N)=O)C2` [CatS_100], 45 nM; to `NC(=O)C(=O)N1CCc2c(c(-c3ccc(Cl)c(C#Cc4ccc(Cl)c(CN[C@@H](CO)c5ccccc5)c4)c3)nn2CCCN2CCSCC2)C1` [CatS_88], 25 nM. For `CC(C)=CC(=O)NCc1cc(-c2nn(CCCN3CCOCC3)c3c2CN(C(=O)CC2CCN(C(=O)OC(C)(C)C)CC2)CC3)ccc1C(F)(F)F` [CatS_18], the IC50 is 170 nM.

`CC(C)(C)C1CCN(CCCn2nc(-c3ccc(C(F)(F)F)c(CNCc4ccc(F)cc4)c3)c3c2CCN(S(C)(=O)=O)C3)CC1` [CatS_12]: the midpoint of inhibition, the IC50, lay at 30 nM. In turn, `NC(=O)N1CCc2c(c(-c3ccc(Cl)c(C#Cc4ccc(CN[C@@H]5CCCc6ccccc65)cc4)c3)nn2CCCN2CCOCC2)C1` [CatS_80] gave an IC50 of 98 nM. For `C[C@H]1COCCN1CCCn1nc(-c2ccc(Cl)c(CCc3ccc(CNCc4ccc(Cl)cc4)cc3)c2)c2c1CCN(C(=O)C(N)=O)C2` [CatS_95] the value was 35 nM.
